# Test system: nitrification
# Test: Example 5: soil incubation in bottles with ammonium sulfate, DMPSA, DCD or mixtures, 5 to 15° C., 0 up to 56 days; recovery NH4 (RE/RC), net recovery NH4 (NE/NC), inhibition of NO3 formation (IE/IC, Böhland; Colby)
# Description: 100 g soil is filled into 500 ml plastic bottles (e.g. soil sampled from the field) and is moistened to 50% water holding capacity. The soil is incubated at 20° C. for two weeks to activate the microbial biomass. 1 ml test solution, containing the compositions and mixtures of the invention in the appropriate concentration, or DMSO and 5 to 10 mg nitrogen in the form of ammoniumsulfate-N is added to the soil and everything mixed well. Bottles are capped but loosely to allow air exchange. The bottles are then incubated at 5 to 15° C. for 0 up to 56 days.
# For analysis, 300 ml of a 1% K2SO4-solution is added to the bottle containing the soil and shaken for 2 hrs in a horizontal shaker at 150 rpm. Then the whole solution is filtered through a Macherey-Nagel Filter MN 807′/. Ammonium and nitrate content is then analyzed in the filtrate in an autoanalyzer at 550 nm (Merck, AA11).
# The Böhland equation is described in Böhland, H., et al. (1973) “Mittel zur Hemmung bzw. Regelung der Nitrifikation von Ammoniumstickstoff in Kulturböden”. DDR-Wirtschaftspatent (Economic patent of the German Democratic Republic) C 05c 169 727. Cited by: Peschke, H. (1985) “Zur Bewertung der inhibierenden Wirkung von Nitrifiziden im Boden”, Zbl. Mikrobiol. 140, pp. 583-588.
smiles,measurement,setting,value
"N#CN=C(N)N [DCD, dicyandiamide]",IE inhibition of NO3 formation,"IT5° C., DAT10, % a.i.: DMPSA 0.5, DCD 1, DMPSA + DCD 0.5 + 1 (1:2)",10
same,IE inhibition of NO3 formation,"IT5° C., DAT10, % a.i.: DMPSA 0.5, DCD 3, DMPSA + DCD 0.5 + 3 (1:6)",43
same,IE inhibition of NO3 formation,"IT5° C., DAT20, % a.i.: DMPSA 0.5, DCD 1, DMPSA + DCD 0.5 + 1 (1:2)",−5
same,IE inhibition of NO3 formation,"IT5° C., DAT20, % a.i.: DMPSA 0.5, DCD 3, DMPSA + DCD 0.5 + 3 (1:6)",32
same,"IE (inhibition of NO3 formation, Böhland)","IT5° C., DAT28, % a.i. DMPSA 0.25, DCD 1",65
same,"IE (inhibition of NO3 formation, Böhland)","IT5° C., DAT28, % a.i. DMPSA 0.25, DCD 3",73
same,"IE (inhibition of NO3 formation, Böhland)","IT5° C., DAT28, % a.i. DMPSA 0.30, DCD 0.05",1
same,"IE (inhibition of NO3 formation, Böhland)","IT5° C., DAT28, % a.i. DMPSA 0.50, DCD 0.08",12
same,IE inhibition of NO3 formation,"IT5° C., DAT28, % a.i.: DMPSA 0.50, DCD 0.0125, DMPSA + DCD 0.50 + 0.0125 (40:1)",−7
same,IE inhibition of NO3 formation,"IT5° C., DAT28, % a.i.: DMPSA 0.50, DCD 0.0143, DMPSA + DCD 0.50 + 0.0143 (35:1)",−2
same,IE inhibition of NO3 formation,"IT5° C., DAT28, % a.i.: DMPSA 0.50, DCD 0.0167, DMPSA + DCD 0.50 + 0.0167 (30:1)",0
same,IE inhibition of NO3 formation,"IT5° C., DAT30, % a.i.: DMPSA 0.5, DCD 1, DMPSA + DCD 0.5 + 1 (1:2)",70
same,IE inhibition of NO3 formation,"IT5° C., DAT30, % a.i.: DMPSA 0.5, DCD 3, DMPSA + DCD 0.5 + 3 (1:6)",113
same,"IE (inhibition of NO3 formation, Böhland)","IT5° C., DAT42, % a.i. DMPSA 0.25, DCD 1",63
same,"IE (inhibition of NO3 formation, Böhland)","IT5° C., DAT42, % a.i. DMPSA 0.25, DCD 3",82
same,"IE (inhibition of NO3 formation, Böhland)","IT5° C., DAT42, % a.i. DMPSA 0.30, DCD 0.05",7
same,"IE (inhibition of NO3 formation, Böhland)","IT5° C., DAT42, % a.i. DMPSA 0.50, DCD 0.08",18
same,"IE (inhibition of NO3 formation, Böhland)","IT5° C., DAT56, % a.i. DMPSA 0.25, DCD 1",57
same,"IE (inhibition of NO3 formation, Böhland)","IT5° C., DAT56, % a.i. DMPSA 0.25, DCD 3",74
same,"IE (inhibition of NO3 formation, Böhland)","IT5° C., DAT56, % a.i. DMPSA 0.30, DCD 0.05",13
same,"IE (inhibition of NO3 formation, Böhland)","IT5° C., DAT56, % a.i. DMPSA 0.50, DCD 0.08",−1
same,IE inhibition of NO3 formation,"IT10° C., DAT10, % a.i.: DMPSA 0.5, DCD 1, DMPSA + DCD 0.5 + 1 (1:2)",18
same,IE inhibition of NO3 formation,"IT10° C., DAT10, % a.i.: DMPSA 0.5, DCD 3, DMPSA + DCD 0.5 + 3 (1:6)",59
same,IE inhibition of NO3 formation,"IT10° C., DAT20, % a.i.: DMPSA 0.5, DCD 1, DMPSA + DCD 0.5 + 1 (1:2)",15
same,IE inhibition of NO3 formation,"IT10° C., DAT20, % a.i.: DMPSA 0.5, DCD 3, DMPSA + DCD 0.5 + 3 (1:6)",24
same,"IE (inhibition of NO3 formation, Böhland)","IT10° C., DAT28, % a.i. DMPSA 0.25, DCD 1",47
same,"IE (inhibition of NO3 formation, Böhland)","IT10° C., DAT28, % a.i. DMPSA 0.25, DCD 3",64
same,"IE (inhibition of NO3 formation, Böhland)","IT10° C., DAT28, % a.i. DMPSA 0.30, DCD 0.05",4
same,"IE (inhibition of NO3 formation, Böhland)","IT10° C., DAT28, % a.i. DMPSA 0.50, DCD 0.08",2
same,IE inhibition of NO3 formation,"IT10° C., DAT28, % a.i.: DMPSA 0.50, DCD 0.0125, DMPSA + DCD 0.50 + 0.0125 (40:1)",1
same,IE inhibition of NO3 formation,"IT10° C., DAT28, % a.i.: DMPSA 0.50, DCD 0.0143, DMPSA + DCD 0.50 + 0.0143 (35:1)",−3
same,IE inhibition of NO3 formation,"IT10° C., DAT28, % a.i.: DMPSA 0.50, DCD 0.0167, DMPSA + DCD 0.50 + 0.0167 (30:1)",−1
same,IE inhibition of NO3 formation,"IT10° C., DAT30, % a.i.: DMPSA 0.5, DCD 1, DMPSA + DCD 0.5 + 1 (1:2)",47
same,IE inhibition of NO3 formation,"IT10° C., DAT30, % a.i.: DMPSA 0.5, DCD 3, DMPSA + DCD 0.5 + 3 (1:6)",55
same,"IE (inhibition of NO3 formation, Böhland)","IT10° C., DAT42, % a.i. DMPSA 0.25, DCD 1",51
same,"IE (inhibition of NO3 formation, Böhland)","IT10° C., DAT42, % a.i. DMPSA 0.25, DCD 3",64
same,"IE (inhibition of NO3 formation, Böhland)","IT10° C., DAT42, % a.i. DMPSA 0.30, DCD 0.05",−1
same,"IE (inhibition of NO3 formation, Böhland)","IT10° C., DAT42, % a.i. DMPSA 0.50, DCD 0.08",−1
same,"IE (inhibition of NO3 formation, Böhland)","IT10° C., DAT56, % a.i. DMPSA 0.25, DCD 1",19
same,"IE (inhibition of NO3 formation, Böhland)","IT10° C., DAT56, % a.i. DMPSA 0.25, DCD 3",29
same,"IE (inhibition of NO3 formation, Böhland)","IT10° C., DAT56, % a.i. DMPSA 0.30, DCD 0.05",−3
same,"IE (inhibition of NO3 formation, Böhland)","IT10° C., DAT56, % a.i. DMPSA 0.50, DCD 0.08",0
same,IE inhibition of NO3 formation,"IT15° C., DAT10, % a.i.: DMPSA 0.5, DCD 1, DMPSA + DCD 0.5 + 1 (1:2)",34
same,IE inhibition of NO3 formation,"IT15° C., DAT10, % a.i.: DMPSA 0.5, DCD 3, DMPSA + DCD 0.5 + 3 (1:6)",55
same,IE inhibition of NO3 formation,"IT15° C., DAT20, % a.i.: DMPSA 0.5, DCD 1, DMPSA + DCD 0.5 + 1 (1:2)",47
same,IE inhibition of NO3 formation,"IT15° C., DAT20, % a.i.: DMPSA 0.5, DCD 3, DMPSA + DCD 0.5 + 3 (1:6)",64
same,"IE (inhibition of NO3 formation, Böhland)","IT15° C., DAT28, % a.i. DMPSA 0.25, DCD 1",27
same,"IE (inhibition of NO3 formation, Böhland)","IT15° C., DAT28, % a.i. DMPSA 0.25, DCD 3",46
same,IE inhibition of NO3 formation,"IT15° C., DAT28, % a.i.: DMPSA 0.30, DCD 0.05, DMPSA + DCD 0.30 + 0.05 (6:1)",5
same,IE inhibition of NO3 formation,"IT15° C., DAT28, % a.i.: DMPSA 0.50, DCD 0.0125, DMPSA + DCD 0.50 + 0.0125 (40:1)",2
same,IE inhibition of NO3 formation,"IT15° C., DAT28, % a.i.: DMPSA 0.50, DCD 0.0143, DMPSA + DCD 0.50 + 0.0143 (35:1)",1
same,IE inhibition of NO3 formation,"IT15° C., DAT28, % a.i.: DMPSA 0.50, DCD 0.0167, DMPSA + DCD 0.50 + 0.0167 (30:1)",1
same,IE inhibition of NO3 formation,"IT15° C., DAT28, % a.i.: DMPSA 0.50, DCD 0.08, DMPSA + DCD 0.50 + 0.08 (6.25:1)",2
same,IE inhibition of NO3 formation,"IT15° C., DAT30, % a.i.: DMPSA 0.5, DCD 1, DMPSA + DCD 0.5 + 1 (1:2)",42
same,IE inhibition of NO3 formation,"IT15° C., DAT30, % a.i.: DMPSA 0.5, DCD 3, DMPSA + DCD 0.5 + 3 (1:6)",59
same,"IE (inhibition of NO3 formation, Böhland)","IT15° C., DAT42, % a.i. DMPSA 0.25, DCD 1",12
same,"IE (inhibition of NO3 formation, Böhland)","IT15° C., DAT42, % a.i. DMPSA 0.25, DCD 3",21
same,IE inhibition of NO3 formation,"IT15° C., DAT42, % a.i.: DMPSA 0.30, DCD 0.05, DMPSA + DCD 0.30 + 0.05 (6:1)",2
same,IE inhibition of NO3 formation,"IT15° C., DAT42, % a.i.: DMPSA 0.50, DCD 0.08, DMPSA + DCD 0.50 + 0.08 (6.25:1)",3
same,"IE (inhibition of NO3 formation, Böhland)","IT15° C., DAT56, % a.i. DMPSA 0.25, DCD 1",1
same,"IE (inhibition of NO3 formation, Böhland)","IT15° C., DAT56, % a.i. DMPSA 0.25, DCD 3",3
same,IE inhibition of NO3 formation,"IT15° C., DAT56, % a.i.: DMPSA 0.30, DCD 0.05, DMPSA + DCD 0.30 + 0.05 (6:1)",16
same,IE inhibition of NO3 formation,"IT15° C., DAT56, % a.i.: DMPSA 0.50, DCD 0.08, DMPSA + DCD 0.50 + 0.08 (6.25:1)",13
